Measured values reported in ChEMBL document CHEMBL1136501 (Bioorg Med Chem Lett, 2003).

Legend:
[1] = target: T1, Sodium-dependent noradrenaline transporter (Homo sapiens, UniProt P23975); test: Inhibition of [3H]nisoxetine binding to norepinephrine transporter; settings: concentration not given here
[2] = target: T2, Sodium-dependent serotonin transporter (Homo sapiens, UniProt P31645)
Target sequence in this assay (P31645 whole entry): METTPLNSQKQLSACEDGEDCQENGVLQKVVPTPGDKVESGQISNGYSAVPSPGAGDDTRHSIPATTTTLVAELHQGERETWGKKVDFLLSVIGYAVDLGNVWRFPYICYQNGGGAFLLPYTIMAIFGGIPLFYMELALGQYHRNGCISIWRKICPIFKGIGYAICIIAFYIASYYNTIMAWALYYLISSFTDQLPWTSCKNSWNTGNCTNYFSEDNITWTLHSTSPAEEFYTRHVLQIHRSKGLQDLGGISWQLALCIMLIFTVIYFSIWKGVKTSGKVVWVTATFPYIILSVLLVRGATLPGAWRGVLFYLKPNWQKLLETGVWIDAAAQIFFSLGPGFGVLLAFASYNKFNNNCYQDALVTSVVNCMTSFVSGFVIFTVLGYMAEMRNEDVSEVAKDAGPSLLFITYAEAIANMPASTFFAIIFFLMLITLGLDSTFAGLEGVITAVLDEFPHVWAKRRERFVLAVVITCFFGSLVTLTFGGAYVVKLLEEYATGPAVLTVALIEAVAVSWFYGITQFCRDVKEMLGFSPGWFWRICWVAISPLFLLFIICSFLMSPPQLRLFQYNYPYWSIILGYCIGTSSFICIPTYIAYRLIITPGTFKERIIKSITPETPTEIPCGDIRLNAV
Description: Binding affinity to serotonin transporter, using [3H]citalopram as radioligand

[3] = target: T1, Sodium-dependent noradrenaline transporter
Description: Inhibition of [3H]nisoxetine binding to norepinephrine (NE) transporter

[4] = target: T2, Sodium-dependent serotonin transporter; test: Binding affinity at serotonin transporter, using [3H]citalopram as radioligand at a concentration of 0.1 uM
Target sequence in this assay (P31645 whole entry, looked up): as the sequence (P31645 whole entry) above

Rattus norvegicus [5] = organism: Rattus norvegicus
Description: Inhibition of dopamine uptake into rat synaptosomes

Rattus norvegicus [6] = organism: Rattus norvegicus; remark: listed apart in the source
Description: Inhibition of norepinephrine uptake into rat synaptosomes

Rattus norvegicus [7] = organism: Rattus norvegicus; remark: listed apart in the source
Description: Inhibition of serotonin uptake into rat synaptosomes

T1 sequence (P23975 whole entry): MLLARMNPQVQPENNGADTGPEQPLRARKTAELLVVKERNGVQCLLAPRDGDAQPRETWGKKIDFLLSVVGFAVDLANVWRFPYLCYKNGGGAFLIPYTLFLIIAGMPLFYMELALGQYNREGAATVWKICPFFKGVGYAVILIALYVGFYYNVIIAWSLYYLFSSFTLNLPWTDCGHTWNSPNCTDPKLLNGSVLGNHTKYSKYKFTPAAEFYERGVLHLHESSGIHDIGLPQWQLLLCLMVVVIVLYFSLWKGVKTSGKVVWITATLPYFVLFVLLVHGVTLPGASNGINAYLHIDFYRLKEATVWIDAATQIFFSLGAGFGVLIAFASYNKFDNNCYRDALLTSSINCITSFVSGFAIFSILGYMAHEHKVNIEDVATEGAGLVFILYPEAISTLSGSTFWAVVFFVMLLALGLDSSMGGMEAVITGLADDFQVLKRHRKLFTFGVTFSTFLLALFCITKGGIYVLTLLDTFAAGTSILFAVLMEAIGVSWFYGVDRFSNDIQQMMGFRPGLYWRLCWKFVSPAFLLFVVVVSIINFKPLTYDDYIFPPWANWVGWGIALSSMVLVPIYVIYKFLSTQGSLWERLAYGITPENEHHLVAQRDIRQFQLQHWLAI

| inhibition [1] [%] | Ki [2] [nM] | Ki [3] [nM] | SMILES | further results |
| --- | --- | --- | --- | --- |
| 25.5 | 31 | – | CNCCCCOc1cccc2ccccc12 | – |
| – | 2.1 | 36 | CNCCC(Oc1cccc2ccccc12)c1ccc(C)cc1 (centres undefined) | – |
| 17 | – | – | CNCCOc1cccc2ccccc12 | inhibition [4]: 2% |
| – | 7.6 | 67 | CNCCC(Oc1cccc2ccccc12)c1cccc(Br)c1 (centres undefined) | – |
| – | 2.2 | 81 | CNCCC(Oc1cccc2ccccc12)c1cccc(OC)c1 (centres undefined) | – |
| – | 0.7 | 20 | CNCCC(Oc1cccc2ccccc12)c1ccco1 (centres undefined) | – |
| – | 2.4 | 20 | CNCCC(Oc1cccc2ccccc12)c1ccccc1 (centres undefined) | – |
| – | 4.1 | 160 | CNCCC(Oc1cccc2ccccc12)c1ccc(Br)cc1 (centres undefined) | – |
| – | 19 | 70 | CNCCC(Oc1cccc2ccccc12)c1cccc(C(F)(F)F)c1 (centres undefined) | – |
| – | 3.5 | 74 | CNCCC(Oc1cccc2ccccc12)c1ccc(OC)cc1 (centres undefined) | – |
| 25 | 75 | – | CNCCCOc1cccc2ccccc12 | – |
| 23 | – | – | CNCCCCCOc1cccc2ccccc12 | inhibition [4]: 35.5% |

Second part, the compound before the results:

| SMILES | inhibition [1] [%] | Ki [2] [nM] | Ki [3] [nM] | further results |
| --- | --- | --- | --- | --- |
| CNCC[C@@H](Oc1ccccc1C)c1ccccc1 [ATOMOXETINE] | – | – | – | Ki (Rattus norvegicus [5]): 2000 nM; Ki (Rattus norvegicus [6]): 4 nM; Ki (Rattus norvegicus [7]): 1500 nM |
| CNCCC(Oc1cccc2ccccc12)c1ccccc1C(F)(F)F (centres undefined) | 38 | 10 | – | – |
| CNCCC(Oc1cccc2ccccc12)c1ccc(F)cc1 (centres undefined) | – | 0.95 | 42 | – |
| CNCCC(Oc1cccc2ccccc12)c1cccc(C)c1 (centres undefined) | – | 4 | 40 | – |
| CNCCC(Oc1cccc2ccccc12)c1ccccc1OC (centres undefined) | 56 | 2.3 | – | – |
| CNCCC(Oc1cccc2ccccc12)c1ccsc1 (centres undefined) | – | 1.1 | 21 | – |
| CNCCCOc1ccc2ccccc2c1 | 39 | – | – | inhibition [4]: 23% |
| CNCCC(Oc1cccc2ccccc12)c1ccc(Cl)cc1 (centres undefined) | – | 3.8 | 78 | – |
| CNCCC(Oc1cccc2ccccc12)c1ccccc1C (centres undefined) | – | 2 | 110 | – |
| CNCCC(Oc1cccc2ccccc12)c1nccs1 (centres undefined) | – | 6.4 | 55 | – |
| CNCCC(Oc1cccc2ccccc12)c1ccc(C(F)(F)F)cc1 (centres undefined) | 55 | 14.5 | – | – |
| CNCCCCOc1ccc2ccccc2c1 | 17 | – | – | inhibition [4]: 32% |
